Laboratory results taken from patent publication US20070128217A1 (priority 2003, published 2007).

Columns and labels:
[1] = tested on: antibodies in sera from SARS patients (sera 1a, 1b, 2, 6, 37, 62, London, SARS-yellow, SARS-green); type: binding, human; set-up: Binding of serum 6 to linear peptides of protein X1 of SARS-CoV Urbani / Binding of serum 37 to linear peptides of protein X1 of SARS-CoV Urbani / Binding of serum 6 to looped/cyclic peptide (PEPSCAN-ELISA) / Binding of serum 37 to looped/cyclic peptide (PEPSCAN-ELISA) / Binding of serum 37 to looped/cyclic peptides of protein X1 of SARS-CoV Urbani / Binding of serum 6 to linear peptides of protein X2 / Binding of serum 37 to linear peptides of protein X2 / Binding of serum 37 to looped/cyclic peptides of protein X2 of SARS-CoV Urbani / Binding of serum 6 to linear peptides of protein M of SARS-CoV Urbani / Binding of serum 37 to linear peptides of protein M of SARS-CoV Urbani / Binding of serum 6 to looped/cyclic peptides of protein M of SARS-CoV Urbani / Binding of serum 37 to looped/cyclic peptides of protein M of SARS-CoV Urbani / Binding of serum 6 to linear peptides of protein X3 of SARS-CoV Urbani / Binding of serum 37 to linear peptides of protein X3 of SARS-CoV Urbani / Binding of serum 37 to looped/cyclic peptides of protein X3 of SARS-CoV Urbani / Binding of serum 6 to linear peptides of protein X4 of SARS-CoV Urbani / Binding of serum 37 to linear peptides of protein X4 of SARS-CoV Urbani / Binding of serum 37 to looped/cyclic peptides of protein X4 of SARS-CoV Urbani / Binding of serum 6 to linear peptides of protein X5 of SARS-CoV Urbani / Binding of serum 37 to linear peptides of protein X5 of SARS-CoV Urbani / Binding of serum 37 to looped/cyclic peptides of protein X5 of SARS-CoV Urbani / Binding of serum 6 to linear peptides of protein N of SARS-CoV Urbani / Binding of serum 37 to linear peptides of protein N of SARS-CoV Urbani / Binding of serum 6 to linear peptide (PEPSCAN-ELISA) / Binding of serum 1a to looped/cyclic peptides of protein N of SARS-CoV Urbani / Binding of serum 1b to looped/cyclic peptides of protein N of SARS-CoV Urbani / Binding of serum 2 to looped/cyclic peptides of protein N of SARS-CoV Urbani / Binding of serum 6 to looped/cyclic peptides of protein N of SARS-CoV Urbani / Binding of serum 37 to looped/cyclic peptides of protein N of SARS-CoV Urbani / Binding of serum 62 to looped/cyclic peptides of protein N of SARS-CoV Urbani / Binding of serum London to looped/cyclic peptides of protein N of SARS-CoV Urbani / Binding of serum SARS-green to looped/cyclic peptides of protein N of SARS-CoV Urbani: unit not given here
[2] = tested on: control sera (pooled serum of ten healthy LUMC hospital workers; commercial negative donor pooled serum from the Dutch bloodbank); type: binding, human; set-up: Binding of Control serum LUMC to linear peptides / Binding of Control serum Blood-bank to linear peptides / Binding of Control serum LUMC to looped peptides / Binding of Control Serum Blood-Bank to Looped peptides / Binding of Control serum LUMC to linear peptides of the protein M of SARS-CoV Urbani / Binding of Control serum Blood-bank to linear peptides of the protein M of SARS-CoV Urbani / Binding of Control serum LUMC to looped peptides of the protein M of SARS-CoV Urbani / Binding of Control Serum Blood-Bank to Looped peptides of the protein M of SARS-CoV Urbani: unit not given here
[3] = tested on: rabbit serum obtained by immunizing a rabbit with the SARS-CoV strain Frankfurt 1; type: binding; set-up: Binding of a rabbit serum to linear peptides / Binding of a rabbit serum to looped peptides / Rabbit serum linear peptides / Rabbit serum looped peptides / Binding of a rabbit serum to linear peptides of protein N of SARS-CoV Urbani (Rabbit serum linear peptides) / Binding of a rabbit serum to looped/cyclic peptides of protein N of SARS-CoV Urbani (Rabbit serum looped peptides): unit not given here
[4] = tested on: recombinant human anti-SARS-CoV antibody 03-018; type: binding; set-up: Binding of antibody 03-018 to linear peptides of the N protein of SARS-CoV Urbani / Binding of antibody 03-018 to looped/cyclic peptides of the N protein of SARS-CoV Urbani: unit not given here

Row | Sequence | Binding of serum 1a to linear peptides of protein N of SARS-CoV Urbani [1] | Binding of serum 1a to looped/cyclic peptides of protein N of SARS-CoV Urbani [1] | Binding of serum 1b to linear peptides of protein N of SARS-CoV Urbani [1] | Binding of serum 1b to looped/cyclic peptides of protein N of SARS-CoV Urbani [1] | Binding of serum 2 to linear peptides of protein N of SARS-CoV Urbani [1] | Binding of serum 2 to looped/cyclic peptides of protein N of SARS-CoV Urbani [1] | Binding of serum 6 to linear peptides of protein N of SARS-CoV Urbani [1] | Binding of serum 6 to looped/cyclic peptides of protein N of SARS-CoV Urbani [1] | Binding of serum 37 to linear peptides of protein N of SARS-CoV Urbani [1] | Binding of serum 37 to looped/cyclic peptides of protein N of SARS-CoV Urbani [1] | Binding of serum 62 to linear peptides of protein N of SARS-CoV Urbani [1] | Binding of serum 62 to looped/cyclic peptides of protein N of SARS-CoV Urbani [1] | Binding of serum London to linear peptides of protein N of SARS-CoV Urbani [1] | Binding of serum London to looped/cyclic peptides of protein N of SARS-CoV Urbani [1] | Binding of serum SARS-green to linear peptides of protein N of SARS-CoV Urbani [1] | Binding of serum SARS-green to looped/cyclic peptides of protein N of SARS-CoV Urbani [1] | Binding of serum SARS-yellow to linear peptides of protein N of SARS-CoV Urbani [1] | Binding of serum SARS-yellow to looped/cyclic peptides of protein N of SARS-CoV Urbani [1] | Binding of Control Serum Blood-Bank to Looped peptides [2] | Binding of Control serum Blood-bank to linear peptides [2] | other results
1 | NNQNGGRNGARPKQR | 0.2 | 0.2 | 0.2 | 0.1 | 0.2 | 0.2 | 0.3 | 0.2 | 0.7 | 0.4 | 0.8 | 0.3 | 0.5 | 0.3 | 0.5 | 0.1 | 0.6 | 0.3 | 0.5 | 0.9 | Binding of Control serum LUMC to linear peptides [2]: 0.8; Binding of Control serum LUMC to looped peptides [2]: 0.6; Binding of a rabbit serum to linear peptides of protein N of SARS-CoV Urbani (Rabbit serum linear peptides) [3]: 0.3; Binding of a rabbit serum to looped/cyclic peptides of protein N of SARS-CoV Urbani (Rabbit serum looped peptides) [3]: 0.7; Binding of antibody 03-018 to linear peptides of the N protein of SARS-CoV Urbani [4]: 0.2; Binding of antibody 03-018 to looped/cyclic peptides of the N protein of SARS-CoV Urbani [4]: 0.2
2 | NNTASWFTALTQHGK | 0.2 | 0.2 | 0.1 | 0.1 | 0.2 | 0.2 | 0.1 | 0.1 | 0.7 | 0.4 | 0.6 | 0.2 | 0.4 | 0.2 | 0.4 | 0.1 | 0.5 | 0.1 | 0.5 | 0.6 | Binding of Control serum LUMC to linear peptides [2]: 0.7; Binding of Control serum LUMC to looped peptides [2]: 0.4; Binding of a rabbit serum to linear peptides of protein N of SARS-CoV Urbani (Rabbit serum linear peptides) [3]: 0.1; Binding of a rabbit serum to looped/cyclic peptides of protein N of SARS-CoV Urbani (Rabbit serum looped peptides) [3]: 0.3; Binding of antibody 03-018 to linear peptides of the N protein of SARS-CoV Urbani [4]: 0.1; Binding of antibody 03-018 to looped/cyclic peptides of the N protein of SARS-CoV Urbani [4]: 0.2
3 | NPNNNAATVLQLPQG | 0.4 | 0.4 | 0.2 | 0.4 | 0.4 | 0.5 | 0.3 | 0.3 | 0.8 | 0.9 | 0.9 | 0.9 | 0.8 | 0.5 | 0.6 | 0.7 | 0.8 | 0.5 | 0.8 | 0.9 | Binding of Control serum LUMC to linear peptides [2]: 0.9; Binding of Control serum LUMC to looped peptides [2]: 0.9; Binding of a rabbit serum to linear peptides of protein N of SARS-CoV Urbani (Rabbit serum linear peptides) [3]: 0.1; Binding of a rabbit serum to looped/cyclic peptides of protein N of SARS-CoV Urbani (Rabbit serum looped peptides) [3]: 0.3; Binding of antibody 03-018 to linear peptides of the N protein of SARS-CoV Urbani [4]: 0.1; Binding of antibody 03-018 to looped/cyclic peptides of the N protein of SARS-CoV Urbani [4]: 0.3
